Reference: patent US20230087609A1, “USE OF A SOLUBLE GUANYLATE CYCLASE (sGC) STIMULATOR OR OF A COMBINATION OF A sGC STIMULATOR AND AN sGC ACTIVATOR FOR CONDITIONS WHEREIN THE HEME GROUP OF sGC IS OXIDIZED OR WHEREIN sGC IS DEFICIENT IN HEME” (Universiteit Maastricht, priority 2020, published 2023)
Entries after “also recorded” stand apart in the source; their conditions may differ.

How the values were obtained:
[1] = test system: isolated rat mesenteric arteries; experiment: Relaxation of isolated rat mesenteric arteries (myograph)
Text: The animals were killed humanely via CO2 inhalation (95% CO2, 5% O2) followed by cervical dislocation and exsanguination. The required tissues were dissected and placed in ice-cold oxygenated Krebs' solution (composition in mM: NaCl 119, KCl 4.7, MgSO4 1.17, NaHCO3 25, KH2PO4 1.18, CaCl2 2.5, glucose 5.5, EDTA 0.026, pH 7.4). The collected arteries were carefully freed of fat and connective tissue and cut into 2 mm rings.
The segments were then mounted in a small vessel myograph for the measurement of changes in isometric tension. Two 40 μm stainless steel wires were inserted through the lumen of the segment, one attached to an isometric force transducer and the other to a support driven by a micrometer. The vessels were maintained in Krebs' solution at 37° C. in 7 ml myograph chambers and were continuously bubbled with carbogen (95% O2, 5% CO2). Arteries were allowed to equilibrate for a 30 min period under zero force after which their internal diameter was normalised to an equivalent transmural pressure of 100 mmHg. Changes in isometric tension were reordered using a Myograph Interface Model 610 M version 2.2 (AD Instruments, Pty Ltd) and a chart recorder (Yokogawa, Japan), or using a MacLab® (MacLab® data-acquisition system, AD Instruments Pty Ltd.), interfaced with a Macintosh Computer. Following the 30 min equilibration period at optimal resting tension, the vessels were contracted maximally using a potassium depolarising KPSS solution (composition in mM: KCl 123, MgSO4 1.17, KH2PO4 2.37, CaCl2 2.5, glucose, 5.5 and EDTA 0.026). After the maximum contraction reached a plateau, the vessels were washed thoroughly using Krebs' solution and the tension allowed to return to the baseline. The vessels were then pre-contracted to ≈50% maximum contraction using titrated concentration of the thromboxane A2 mimetic U46619 (0.1-100 nM) and a titrated concentration of the al agonist cirazoline (1-100 nM). Subsequently, cumulative (0.5 log unit) concentration response curve to BAY 58-2667 (1 pM-0.1 μM) were constructed in the presence and absence of 100nM BAY 41-2272 (100 nM). All treatments used in our study including the pre-incubation with 10 μM ODQ for 30 min were added before the 50% pre-contraction with cirazoline and U46619 and only one concentration response curve to any vasodilator was constructed in each segment of the blood vessel. At the completion of each concentration response curve, maximal relaxation was achieved by adding nifedipine 10 μM.
Results are expressed as mean±s.e.m, with n representing the number of samples used from separate subjects. Statistical significance was accepted at the P<0.05 level. Relaxation responses to BAY58-2667 were expressed as a percentage reversal of the level of pre-contraction to U46619, with the response to nifedipine 10 μM defined as 100% relaxation. The individual response curves obtained for each vasodilator were fitted using non-linear regressions (Graphpad Prism®, version 5). In-vitro experiments have been performed with n=3 and n=1. Maximal relaxation values (%) at specific concentrations of the compounds were compared. For multiple comparisons, student's t-test or one-way analysis of variance (ANOVA) was followed by Bonferroni's test. • The results of our experiments are represented by the following non-limiting examples.

[2] = molecular target: T1, apo-sGC (sGCβ1 H105F knock-in) (Mus musculus, UniProt O54865, H105F); experiment: sGC activity in lung homogenates of apo-sGC mice; format: biochemical
T1 construct: from tissue; host or cells: lung homogenate of homozygous sGCβ1 H105F knock-in mice
T1 sequence (O54865 1-620 H105F): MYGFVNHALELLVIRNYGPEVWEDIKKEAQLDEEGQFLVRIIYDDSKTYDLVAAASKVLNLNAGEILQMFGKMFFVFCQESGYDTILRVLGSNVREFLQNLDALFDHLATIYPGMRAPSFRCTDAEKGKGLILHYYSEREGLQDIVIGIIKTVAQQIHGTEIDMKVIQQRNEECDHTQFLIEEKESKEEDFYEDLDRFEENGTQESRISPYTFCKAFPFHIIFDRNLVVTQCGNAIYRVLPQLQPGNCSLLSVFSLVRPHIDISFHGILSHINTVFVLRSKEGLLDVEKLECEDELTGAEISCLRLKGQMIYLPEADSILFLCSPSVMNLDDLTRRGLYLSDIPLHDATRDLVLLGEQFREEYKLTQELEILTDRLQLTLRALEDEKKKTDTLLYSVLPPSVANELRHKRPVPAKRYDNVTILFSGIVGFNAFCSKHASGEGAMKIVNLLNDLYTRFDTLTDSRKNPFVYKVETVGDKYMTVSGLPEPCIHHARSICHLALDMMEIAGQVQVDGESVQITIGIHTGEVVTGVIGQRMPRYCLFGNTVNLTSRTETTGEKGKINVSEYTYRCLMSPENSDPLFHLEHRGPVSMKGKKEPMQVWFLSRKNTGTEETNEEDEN
T1 sequence (Q9ERL9 1-691 partner): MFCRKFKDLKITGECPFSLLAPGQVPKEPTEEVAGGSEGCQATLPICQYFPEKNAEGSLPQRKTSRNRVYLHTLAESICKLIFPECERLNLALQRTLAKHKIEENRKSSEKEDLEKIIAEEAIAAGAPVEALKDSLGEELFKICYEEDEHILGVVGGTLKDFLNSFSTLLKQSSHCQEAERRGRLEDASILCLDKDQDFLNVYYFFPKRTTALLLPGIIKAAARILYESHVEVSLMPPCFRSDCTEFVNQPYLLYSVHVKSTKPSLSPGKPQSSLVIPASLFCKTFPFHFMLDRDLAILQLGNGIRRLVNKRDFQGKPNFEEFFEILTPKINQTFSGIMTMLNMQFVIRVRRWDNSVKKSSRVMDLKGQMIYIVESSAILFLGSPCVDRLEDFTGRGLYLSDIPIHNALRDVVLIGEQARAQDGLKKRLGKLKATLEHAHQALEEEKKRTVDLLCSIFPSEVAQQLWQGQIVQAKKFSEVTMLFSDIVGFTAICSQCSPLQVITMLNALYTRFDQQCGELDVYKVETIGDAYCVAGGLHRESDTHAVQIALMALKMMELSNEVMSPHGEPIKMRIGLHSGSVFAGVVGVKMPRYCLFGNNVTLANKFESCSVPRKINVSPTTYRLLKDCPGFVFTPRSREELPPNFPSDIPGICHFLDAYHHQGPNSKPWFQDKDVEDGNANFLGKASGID
Experimental: Adult male Sprague Dawley (SD) rats (age, 10-12 weeks) were obtained from Animal Resources Centre (Western Australia). Animals were housed on a 12 hour day/night cycle at a room temperature of 20±2° C., in the Department of Pharmacology Animal House, Monash University. The animals were fed standard rodent chow and water was available ad libitum. Homozygous male sGC(1^H105F knock-in mice (“apo-sGC mice”) were kindly provided by Tufts Medical Center, Molecular Cardiology Research Center, Boston, Mass., USA (Toonen et al., Nat Commun. 2015; 6:8482. doi: 10.1038/ncomms9482).
To measure sGC activity, cells were stimulated with 250 μM DEA/NO or 10 μM BAY58-2667 for 3 min at 37° C. Thereafter, cells were immediately lysed in 80% ethanol. Cells were scraped and, after evaporation of ethanol, re-suspended in assay buffer and sonicated. Measurement of sGC activity in crude homogenates of mouse tissue was performed as previously described (Nedvetsky et al., Brain Res. 2002; 950(1-2):148-154. doi: 10.1016/50006-8993(02)03015-9).[9] Briefly, all samples were measured as the formation of cGMP at 37° C. during 10 min in a total incubation volume of […] containing 50 mM triethanolamine-HCl (pH 7.4), 3 mM MgCl2, 3 mM glutathione (Carl Roth, Karlsruhe, Germany), 1 mM IBMX, […], 5 mM creatine phosphate, 0.25 mg/ml creatine kinase and 1 mM or 0.5 mM GTP. After adding sGC activator in the absence or presence of the sGC stimulator the reaction was started by application of GTP solution. Following incubation of each sample for 10 min the reaction was stopped by boiling for 10 min at 95° C. Thereafter the amount of cGMP was subsequently determined by a commercial enzyme immunoassay kit (Enzo Life Sciences, Lorrach, Germany or Biotrend, Cologne, Germany). In some experiments pre-incubation of freshly homogenized tissue with ODQ at 37° C. for 20 min prior measuring sGC activation was required.

[3] = molecular target: T2, human sGCa1 and mutant sGCβ1H105F (apo-sGC) in Sf9 cells (Homo sapiens, UniProt Q02153, H105F); experiment: cGMP accumulation in intact Sf9 cells expressing apo-sGC; format: cell-based; conditions: 10 micromole/L DETA-NONOate alone (FIG. 12A)
T2 construct: His tag; expressed in transfected cells; host or cells: Sf9 cells co-infected with baculoviruses
T2 sequence (Q02153 1-619 H105F): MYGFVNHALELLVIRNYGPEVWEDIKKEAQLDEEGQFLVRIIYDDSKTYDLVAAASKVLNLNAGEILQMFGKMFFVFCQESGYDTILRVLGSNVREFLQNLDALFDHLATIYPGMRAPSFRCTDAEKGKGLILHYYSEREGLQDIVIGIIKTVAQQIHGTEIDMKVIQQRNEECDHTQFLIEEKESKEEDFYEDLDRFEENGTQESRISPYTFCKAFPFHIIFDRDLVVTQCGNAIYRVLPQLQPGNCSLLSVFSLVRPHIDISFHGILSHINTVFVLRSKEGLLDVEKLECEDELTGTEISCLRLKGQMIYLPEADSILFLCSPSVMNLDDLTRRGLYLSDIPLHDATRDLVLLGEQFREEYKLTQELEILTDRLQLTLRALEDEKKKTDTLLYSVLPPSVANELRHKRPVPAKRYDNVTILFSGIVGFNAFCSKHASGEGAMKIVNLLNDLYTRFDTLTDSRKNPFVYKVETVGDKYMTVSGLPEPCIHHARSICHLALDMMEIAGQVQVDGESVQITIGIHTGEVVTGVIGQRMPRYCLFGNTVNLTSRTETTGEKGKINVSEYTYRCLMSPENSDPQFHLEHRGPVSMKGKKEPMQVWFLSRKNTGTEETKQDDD
T2 sequence (Q02108 1-690 partner): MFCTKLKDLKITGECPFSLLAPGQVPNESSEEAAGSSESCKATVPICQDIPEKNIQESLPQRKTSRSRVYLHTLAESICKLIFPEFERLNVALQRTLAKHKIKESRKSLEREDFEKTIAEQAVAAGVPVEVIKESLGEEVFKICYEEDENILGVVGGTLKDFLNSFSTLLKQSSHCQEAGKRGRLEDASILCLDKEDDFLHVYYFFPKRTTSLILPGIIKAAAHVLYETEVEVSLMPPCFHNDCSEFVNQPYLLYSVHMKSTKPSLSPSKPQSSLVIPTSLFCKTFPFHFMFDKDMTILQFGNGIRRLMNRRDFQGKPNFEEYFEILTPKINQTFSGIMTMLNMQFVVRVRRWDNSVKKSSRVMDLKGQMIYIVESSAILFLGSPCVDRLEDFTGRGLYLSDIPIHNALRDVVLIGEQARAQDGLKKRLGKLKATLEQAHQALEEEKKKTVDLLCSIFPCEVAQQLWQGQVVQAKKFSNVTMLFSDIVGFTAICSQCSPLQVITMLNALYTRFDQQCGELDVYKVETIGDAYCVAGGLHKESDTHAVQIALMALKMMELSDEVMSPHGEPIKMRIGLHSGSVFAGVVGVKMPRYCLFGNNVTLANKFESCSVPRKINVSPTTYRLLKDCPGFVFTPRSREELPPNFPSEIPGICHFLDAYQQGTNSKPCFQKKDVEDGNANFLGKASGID
Experimental: Sf9 cells were co-infected with baculoviruses expressing human sGCa1 and mutant sGCβ1H105F. Forty-eight hours post-infection, the cells were treated with vehicle, NO donor, sGC stimulator, sGC activator or combination in 2 ml final volume of 10^6 cells per ml then the cells were incubated for 10 min at 27° C. The reaction was terminated by the addition of 0.1M of HCl, and cGMP was extracted on ice for 20 min. Cells were then sonicated to ensure complete lysis. The extract was then centrifuged and used for cGMP determination by an ELISA (Enzo Life Sciences).
Forty-eight hours post-infection, the cells were treated with vehicle, NO donor, sGC stimulator, sGC activator or combination in 2 ml final volume of 10^6 cells per ml and subsequently, the cells were incubated for 10 minutes at 27° C. The reaction was terminated by the addition of 0.1M of HCl, and cGMP was extracted on ice for 20 minutes. Cells were then sonicated to ensure complete lysis. The obtained cell extract was then centrifuged and used for cGMP determination by an ELISA. […] In the absence of any of the NO donor, the sGCs or the combination of these compounds, no cGMP synthesis is detected. It is now for the first time shown by the inventors that apo-sGC is still activatable even in the absence of an sGC activator known in the art. The presence of the sGCs facilitates NO binding to a secondary, heme-independent NO binding-site, and in addition, presence of an NO donor acts synergistically, when cGMP production is considered. Due to the invention, it is now made possible to treat patients with an sGCs, resulting in cGMP formation, under conditions wherein treatment with sGC activators has no effect at all or a too small effect, e.g. under conditions of ischemia, neonatal asphyxia, stroke, hypoxia, acute respiratory distress syndrome, asthma, oxidative (organ and/or tissue and/or cell) damage, etc. The invention provides a new treatment modality for these patients, which are often not sensitive (enough) for sGCa treatment. […] C.

SMILES: O=C(O)CCCCN(CCc1ccccc1OCc1ccc(CCc2ccccc2)cc1)Cc1ccc(C(=O)O)cc1 [BAY 58-2667]
- maximal relaxation, BAY 58-2667 combined with BAY 41-2272 ([1]; 0.0003 μM BAY 58-2667 + 0.1 μM BAY 41-2272 (FIG. 2)): Super-additive effects
- maximal relaxation, BAY 58-2667 combined with BAY 41-2272 ([1]; 0.001 μM BAY 58-2667 + 0.1 μM BAY 41-2272 (FIG. 3)): Super-additive effects
- maximal relaxation, BAY 58-2667 combined with BAY 41-2272 ([1]; 0.003 μM BAY 58-2667 + 0.1 μM BAY 41-2272 (FIG. 4)): Super-additive effects
- effect of BAY 58-2667 on sGC activity in the presence of BAY 41-2272 ([2]; 0.3 μM BAY 58-2667 + 10 μM BAY 41-2272, fold stimulation versus basal activity (FIG. 1)): potentiated
- sGC activity, response to compound alone ([2]; lung homogenates of apo-sGC mice, compound alone): fully responsive
- potentiation of BAY 58-2667 by BAY 41-2272 ([2]; lung homogenates of apo-sGC mice, maximal efficiency in the nano-molar range): potentiation

SMILES: NCCN(CCN)/[N+]([O-])=N/O [DETA-NONOate]
- cGMP formation, NO donor only [3]: hardly produced any cGMP; also recorded: no effect on cGMP formation
